ChEMBL document CHEMBL2407065, “Discovery of 7-aminofuro[2,3-c]pyridine inhibitors of TAK1: optimization of kinase selectivity and pharmacokinetics” (Bioorg Med Chem Lett, 2013)

What was measured:
[1] = AUC (0 to last) in mouse at 20 mg/kg, po; type: ADME, organism-based; set-up: time 0 - last, dose 20 mg/kg, route oral; conditions: plasma
[2] = Drug metabolism in mouse liver microsomes assessed as M+176 formation; type: ADME, Microsome
[3] = Oral bioavailability in mouse at 20 mg/kg; type: ADME, organism-based; conditions: in vivo
[4] = Volume of distribution at steady state in mouse at 2 mg/kg, iv; type: ADME, organism-based; set-up: dose 2 mg/kg, route intravenous; conditions: in vivo, read-out: Vdss
[5] = Clearance in mouse at 2 mg/kg, iv; type: ADME, organism-based; set-up: dose 2 mg/kg, route intravenous; conditions: in vivo
Liver microsomes = assay: Drug metabolism in human liver microsomes assessed as M+176 formation; type: ADME, Microsome
[6] = Half life in mouse at 2 mg/kg, iv; type: ADME, organism-based; set-up: dose 2 mg/kg, route intravenous; conditions: in vivo
[7] = AUC (0 to infinity) in mouse at 2 mg/kg, iv; type: ADME, organism-based; set-up: dose 2 mg/kg, route intravenous, time infinity; conditions: plasma
[8] = Cmax in mouse at 20 mg/kg, po; type: ADME, organism-based; set-up: dose 20 mg/kg, route oral; conditions: in vivo
[9] = AUC (0 to infinity) in mouse at 20 mg/kg, po; type: ADME, organism-based; set-up: time infinity, dose 20 mg/kg, route oral; conditions: plasma
[10] = Tmax in mouse at 20 mg/kg, po; type: ADME, organism-based; set-up: dose 20 mg/kg, route oral; conditions: in vivo
TAK1/TAB1 = TAK1/TAB1 (Homo sapiens, UniProt O43318); assay: Inhibition of TAK1-TAB1 (unknown origin) by alphascreen assay in presence of ATP; type: protein-complex assay
[11] = Metabolic stability in human liver microsomes assessed as extraction ratio; type: ADME, Microsome; conditions: read-out: ERH
[12] = target: Vascular endothelial growth factor receptor 2 (Homo sapiens, UniProt P35968); assay: Inhibition of KDR autophosphorylation overexpressed in VEGF-stimulated human HEK293 cells; type: cell-based
[13] = Metabolic stability in mouse liver microsomes assessed as extraction ratio; type: ADME, Microsome; conditions: read-out: ERH
Aurora kinase B = Aurora kinase B (Homo sapiens, UniProt Q96GD4); assay: Inhibition of aurora B kinase in human HT-29 cells assessed as inhibition of histone H3 S10 phosphorylation; type: cell-based
[14] = target: T1, Mitogen-activated protein kinase kinase kinase 7 (Homo sapiens, UniProt O43318); assay: Inhibition of TAK1 in human HCT116 cells assessed as inhibition of TNF-alpha-stimulated JNK phosphorylation; type: cell-based, HCT-116
T1 sequence (O43318 whole entry): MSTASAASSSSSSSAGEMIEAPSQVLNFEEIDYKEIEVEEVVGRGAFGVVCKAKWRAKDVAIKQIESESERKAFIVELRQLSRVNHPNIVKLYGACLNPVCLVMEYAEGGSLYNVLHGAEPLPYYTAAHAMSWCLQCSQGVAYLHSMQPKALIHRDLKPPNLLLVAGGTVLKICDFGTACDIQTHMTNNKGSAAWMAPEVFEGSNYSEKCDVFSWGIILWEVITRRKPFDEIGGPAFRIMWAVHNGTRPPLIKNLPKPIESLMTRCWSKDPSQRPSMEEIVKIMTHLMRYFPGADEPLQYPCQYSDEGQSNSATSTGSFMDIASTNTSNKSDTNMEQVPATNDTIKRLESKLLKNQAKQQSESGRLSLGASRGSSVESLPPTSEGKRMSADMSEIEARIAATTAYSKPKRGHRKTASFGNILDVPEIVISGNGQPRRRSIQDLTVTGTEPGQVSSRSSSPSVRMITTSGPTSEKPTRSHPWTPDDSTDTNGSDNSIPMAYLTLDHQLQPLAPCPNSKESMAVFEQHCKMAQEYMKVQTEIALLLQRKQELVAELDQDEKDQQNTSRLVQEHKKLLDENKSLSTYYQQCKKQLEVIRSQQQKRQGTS

[15] = target: T1, Mitogen-activated protein kinase kinase kinase 7; assay: Inhibition of TAK1 in human TOV21G cells assessed as inhibition of JNK phosphorylation
[16] = Cmax in mouse at 100 mg/kg, po; type: ADME, organism-based; set-up: dose 100 mg/kg, route oral; conditions: in vivo
[17] = Antitumor activity against human TOV21G cells xenografted in CD-1 nude mouse assessed as tumor growth inhibition at 100 mg/kg, sc qd administered for 14 days measured on day 15 relative to vehicle-treated control; type: functional; conditions: route subcutaneous, read-out: TGI
[18] = AUC (0 to infinity) in mouse at 100 mg/kg, po; type: ADME, organism-based; set-up: time infinity, dose 100 mg/kg, route oral; conditions: plasma
[19] = Oral bioavailability in mouse at 100 mg/kg; type: ADME, organism-based; conditions: in vivo

Sequence of Vascular endothelial growth factor receptor 2 (P35968 whole entry): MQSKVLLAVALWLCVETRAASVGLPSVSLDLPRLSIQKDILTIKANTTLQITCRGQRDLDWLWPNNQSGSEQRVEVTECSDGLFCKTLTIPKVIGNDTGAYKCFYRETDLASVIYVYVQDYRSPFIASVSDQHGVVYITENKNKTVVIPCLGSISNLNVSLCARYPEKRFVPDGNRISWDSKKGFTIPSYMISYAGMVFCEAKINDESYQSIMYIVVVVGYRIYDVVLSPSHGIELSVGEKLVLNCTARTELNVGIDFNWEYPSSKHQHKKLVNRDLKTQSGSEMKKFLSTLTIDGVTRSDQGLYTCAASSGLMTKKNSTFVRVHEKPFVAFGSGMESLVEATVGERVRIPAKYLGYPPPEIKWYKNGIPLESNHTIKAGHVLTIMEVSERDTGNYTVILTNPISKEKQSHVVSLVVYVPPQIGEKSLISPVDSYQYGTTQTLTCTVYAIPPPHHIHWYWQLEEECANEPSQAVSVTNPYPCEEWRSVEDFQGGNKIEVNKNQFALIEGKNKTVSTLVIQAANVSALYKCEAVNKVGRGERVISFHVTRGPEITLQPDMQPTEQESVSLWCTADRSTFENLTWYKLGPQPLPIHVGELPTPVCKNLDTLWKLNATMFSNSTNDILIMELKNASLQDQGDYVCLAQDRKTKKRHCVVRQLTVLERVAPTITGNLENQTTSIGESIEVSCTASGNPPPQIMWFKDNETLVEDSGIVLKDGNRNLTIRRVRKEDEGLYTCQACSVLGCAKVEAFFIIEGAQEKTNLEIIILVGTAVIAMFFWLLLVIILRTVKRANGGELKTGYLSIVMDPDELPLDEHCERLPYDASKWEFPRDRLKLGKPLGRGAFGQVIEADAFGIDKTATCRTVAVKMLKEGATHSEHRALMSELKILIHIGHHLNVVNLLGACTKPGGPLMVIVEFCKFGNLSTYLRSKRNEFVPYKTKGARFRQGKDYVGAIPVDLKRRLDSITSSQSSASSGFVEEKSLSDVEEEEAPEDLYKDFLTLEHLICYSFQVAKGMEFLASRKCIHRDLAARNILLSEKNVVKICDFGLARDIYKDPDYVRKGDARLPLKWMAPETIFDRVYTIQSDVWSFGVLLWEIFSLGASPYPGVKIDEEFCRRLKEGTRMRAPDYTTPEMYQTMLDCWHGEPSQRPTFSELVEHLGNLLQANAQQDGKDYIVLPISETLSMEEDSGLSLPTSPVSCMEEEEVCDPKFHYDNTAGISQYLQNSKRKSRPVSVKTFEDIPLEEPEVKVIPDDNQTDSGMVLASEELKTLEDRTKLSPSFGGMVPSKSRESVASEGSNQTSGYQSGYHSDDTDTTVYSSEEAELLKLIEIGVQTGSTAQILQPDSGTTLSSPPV
Sequence of Aurora kinase B (Q96GD4 whole entry): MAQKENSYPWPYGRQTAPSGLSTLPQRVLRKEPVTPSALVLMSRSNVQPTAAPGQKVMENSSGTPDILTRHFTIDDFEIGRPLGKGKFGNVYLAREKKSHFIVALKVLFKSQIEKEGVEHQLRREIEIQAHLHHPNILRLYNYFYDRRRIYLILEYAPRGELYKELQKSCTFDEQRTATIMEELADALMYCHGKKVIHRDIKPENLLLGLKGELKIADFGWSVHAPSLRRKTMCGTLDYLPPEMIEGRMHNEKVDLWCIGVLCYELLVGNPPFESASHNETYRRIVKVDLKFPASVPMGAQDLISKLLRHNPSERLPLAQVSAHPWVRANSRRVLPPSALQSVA
Sequence of TAK1/TAB1 (Q15750 whole entry, one chain of several): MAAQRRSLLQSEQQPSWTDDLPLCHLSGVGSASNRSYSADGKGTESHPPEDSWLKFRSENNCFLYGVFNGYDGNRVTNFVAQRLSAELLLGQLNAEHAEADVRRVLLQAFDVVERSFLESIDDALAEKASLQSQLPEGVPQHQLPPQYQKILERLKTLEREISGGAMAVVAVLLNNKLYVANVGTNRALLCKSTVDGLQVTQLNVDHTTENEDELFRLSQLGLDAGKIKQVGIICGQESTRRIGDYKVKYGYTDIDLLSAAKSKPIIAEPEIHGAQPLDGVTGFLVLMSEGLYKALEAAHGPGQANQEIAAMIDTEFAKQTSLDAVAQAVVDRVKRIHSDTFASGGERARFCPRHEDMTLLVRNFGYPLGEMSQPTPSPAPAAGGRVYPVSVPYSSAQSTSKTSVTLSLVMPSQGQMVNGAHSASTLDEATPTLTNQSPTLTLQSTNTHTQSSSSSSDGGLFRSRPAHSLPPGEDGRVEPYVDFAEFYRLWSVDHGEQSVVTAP

| Structure (SMILES) | IC50 (TAK1/TAB1) [nM] | IC50 [12] [nM] | IC50 (Aurora kinase B) [nM] | IC50 [14] [nM] | other results |
| --- | --- | --- | --- | --- | --- |
| CC(=O)N1CCC(n2cc(-c3cnc(N)c4oc(-c5csc6cnccc56)cc34)cn2)CC1 | – | – | – | – | AUC(0-t) [1]: 21 ng·h/mL; Drug metabolism [2]: Active; bioavailability [3]: 1%; Vd [4]: 2.5 L/kg; clearance [5]: 178 mL/min/kg; Drug metabolism (Liver microsomes): Active; half-life [6]: 0.1 h; AUC(0-inf) [7]: 187 ng·h/mL; Cmax [8]: 0.03 µM |
| Nc1ncc(-c2cnn([C@H]3CC[C@H](O)CC3)c2)c2cc(-c3cccc4cnsc34)oc12 | – | – | – | – | AUC(0-inf) [9]: 821 ng·h/mL; bioavailability [3]: 27%; Vd [4]: 12 L/kg; clearance [5]: 111 mL/min/kg; half-life [6]: 3.3 h; AUC(0-inf) [7]: 299 ng·h/mL; Cmax [8]: 1.1 µM |
| Nc1ncc(-c2cnn([C@H]3CC[C@H](O)CC3)c2)c2cc(-c3cccc4nnsc34)oc12 | 9 | 650 | 160 | 15 | AUC(0-inf) [9]: 16000 ng·h/mL; Tmax [10]: 8 h; hepatic extraction ratio [11]: 0.48; Vd [4]: 4.1 L/kg; hepatic extraction ratio [13]: 0.63; clearance [5]: 70 mL/min/kg; half-life [6]: 1.6 h; AUC(0-inf) [7]: 477 ng·h/mL; Cmax [8]: 7.8 µM |
| Nc1ncc(-c2cnn([C@H]3CC[C@H](O)CC3)c2)c2c(Cl)c(-c3cccc4nnsc34)oc12 | – | > 20000 | 6500 | 18 | AUC(0-inf) [9]: 8770 ng·h/mL; IC50 [15]: 28 nM; Cmax [16]: 7.1 µM; hepatic extraction ratio [11]: 0.4; inhibition in vivo at 100 mg/kg [17]: 62%; AUC(0-inf) [18]: 26800 ng·h/mL; bioavailability [3]: 52%; Vd [4]: 2.1 L/kg; bioavailability [19]: 32%; hepatic extraction ratio [13]: 0.39; clearance [5]: 20 mL/min/kg; half-life [6]: 2.1 h; AUC(0-inf) [7]: 1700 ng·h/mL; Cmax [8]: 3.8 µM |
| N#Cc1c(-c2cccc3nnsc23)oc2c(N)ncc(-c3cnn([C@H]4CC[C@H](O)CC4)c3)c12 | 160 | > 20000 | > 10000 | 17 | hepatic extraction ratio [11]: 0.38; hepatic extraction ratio [13]: 0.43 |
| Nc1ncc(-c2cnn([C@H]3CC[C@H](O)CC3)c2)c2c(-c3cccnc3)c(-c3cccc4nnsc34)oc12 | 110 | 8200 | 6900 | 130 | hepatic extraction ratio [11]: 0.41; hepatic extraction ratio [13]: 0.48 |
| Cn1cc(-c2cnc(N)c3oc(-c4csc5cnccc45)cc23)cn1 | 150 | 3400 | 3000 | 190 | – |
| Cn1cnc(-c2cnc(N)c3oc(-c4csc5cnccc45)cc23)c1 | 12700 | – | – | – | – |
| Nc1ncc(-c2ccoc2)c2cc(-c3csc4cnccc34)oc12 | 560 | – | – | – | – |
| Nc1ncc(-c2ccsc2)c2cc(-c3csc4cnccc34)oc12 | 2200 | – | – | – | – |
| Cc1ncc(-c2cnc(N)c3oc(-c4csc5cnccc45)cc23)s1 | 230 | – | – | – | – |
| Nc1ncc(-c2ccccc2)c2cc(-c3csc4cnccc34)oc12 | 3200 | – | – | – | – |
| Nc1ncc(C2=CCNCC2)c2cc(-c3csc4cnccc34)oc12 | 23600 | – | – | – | – |
| Cc1nn(C)cc1-c1cnc(N)c2oc(-c3csc4cnccc34)cc12 | 3500 | > 20000 | > 20000 | 1000 | – |
| COc1nn(C)cc1-c1cnc(N)c2oc(-c3csc4cnccc34)cc12 | 600 | > 20000 | > 20000 | 1700 | – |

Now from value to molecule, other results behind:

| IC50 (TAK1/TAB1) [nM] | IC50 [12] [nM] | IC50 (Aurora kinase B) [nM] | IC50 [14] [nM] | Structure (SMILES) | other results |
| --- | --- | --- | --- | --- | --- |
| 31 | 760 | 1700 | 43 | Nc1ncc(-c2cnn([C@H]3CC[C@H](O)CC3)c2)c2c(-c3cncs3)c(-c3cccc4nnsc34)oc12 | hepatic extraction ratio [11]: 0.55; hepatic extraction ratio [13]: 0.53 |
| 17 | 18300 | 1500 | 45 | Nc1ncc(-c2cnn([C@H]3CC[C@H](O)CC3)c2)c2c(CF)c(-c3cccc4nnsc34)oc12 | hepatic extraction ratio [11]: 0.49; hepatic extraction ratio [13]: 0.43 |
| 14 | > 20000 | 1700 | 20 | Nc1ncc(-c2cnn([C@H]3CC[C@H](O)CC3)c2)c2c(C(F)F)c(-c3cccc4nnsc34)oc12 | AUC(0-inf) [9]: 33700 ng·h/mL; hepatic extraction ratio [11]: 0.48; bioavailability [3]: 98%; Vd [4]: 1 L/kg; hepatic extraction ratio [13]: 0.39; clearance [5]: 10 mL/min/kg; half-life [6]: 1.8 h; AUC(0-inf) [7]: 3440 ng·h/mL; Cmax [8]: 18.6 µM |
| 4900 | – | – | – | Cn1ccc(-c2cnc(N)c3oc(-c4csc5cnccc45)cc23)c1 | – |
| 2100 | – | – | – | Cc1ccc(-c2cnc(N)c3oc(-c4csc5cnccc45)cc23)o1 | – |
| 4600 | – | – | – | Cc1ccc(-c2cnc(N)c3oc(-c4csc5cnccc45)cc23)s1 | – |
| 1400 | – | – | – | Nc1ncc(-c2cscn2)c2cc(-c3csc4cnccc34)oc12 | – |
| 3800 | – | – | – | Nc1ncc(-c2cccnc2)c2cc(-c3csc4cnccc34)oc12 | – |
| 2900 | – | – | – | COCC#Cc1cnc(N)c2oc(-c3csc4cnccc34)cc12 | – |
| 4100 | 19900 | 17400 | 3000 | Cc1c(-c2cnc(N)c3oc(-c4csc5cnccc45)cc23)cnn1C | – |
| 23900 | – | – | 4400 | Cc1nn(C)c(C)c1-c1cnc(N)c2oc(-c3csc4cnccc34)cc12 | – |
| 22800 | – | – | > 10000 | Cn1cc(-c2cnc(N)c3oc(-c4csc5cnccc45)cc23)c(C#N)n1 | – |
